Data set [1] concerns striatal dopamine. Kind of data set: MPTP dopamine depletion model (mice, sacrificed 72 h after MPTP). The data set is classed as in vivo, C57BL/6J mice. The following applies: for protection from MPTP neurotoxicity, % of control / protection from the neurotoxic action of MPTP (in words): 50 mg/kg; for Dopamine, nM/mg ± S.E.M., test compound / Protection, %: 50 mg/kg p.o.; for Dopamine, nM/mg ± S.E.M., test compound / Protection, % / % non-MPTP control (striatal dopamine): 15 mg/kg MPTP model; for Protection, %: versus methyl cellulose control (Standard); for % non-MPTP control (striatal dopamine) / Dopamine/mg protein ± S.E.M.: 30 mg/kg p.o.; for Dopamine/mg protein ± S.E.M.: 30 min before 15 mg/kg MPTP s.c.; for prevention of dopamine depletion following MPTP challenge (in words): Table 1 results, 30 mg/kg; for Degree of protection, % (MPTP dopamine depletion test): Table 3, dose not given. Here is the method:
These findings have led to the development of an assay for agents effective in treating dopamine-associated neurodegenerative disorders, such as Parkinson's disease. In this assay, test animals are given an amount of MPTP adequate to severely depress their dopamine levels. Test compounds are administered to determine if they are capable of preventing the loss of dopamine in the test animals. To the extent that dopamine levels are retained, a compound can be considered to be an effective agent for slowing or delaying the course of neurodegenerative disease, e.g., Parkinson's disease. Dopamine Depletion Studies (MPTP Model) C57BL/6J mice were pretreated with either vehicle (1% methyl cellulose) or a drug (p.o.) 30 min before MPTP. MPTP was dissolved in isotonic saline (0.9%) and given subcutaneously as a single dose of 15 mg free base/kg body weight to produce a reduction in striatal dopamine to about 0.5 nanomoles/mg protein. Groups of mice (n=8-10 per group) received either vehicle plus saline, vehicle plus MPTP, or drug plus MPTP. Seventy two hours after receiving MPTP, mice were sacrificed using cervical dislocation and the striata were excised. The tissue was homogenized in 0.4 N perchloric acid, centrifuged, and the supernatant analyzed by high performance liquid chromatography/electro-chemical detection (HPLC/ED) for dopamine levels. Supernatants were stored in a -90° C. freezer between the time of collection and analysis. The drugs were combined with methyl cellulose and were homogenized in water for dosing. The dosage amount ranged from 10 to 50 mg/kg for CPI1160, CPI1189 and CPI1234, and from 50 to 100 mg/kg for CPI1020.

Data set [2] addresses T1, Aβ(1-40) (Homo sapiens, UniProt P05067).
T1 construct: aggregated fibrils of synthetic Aβ(1-40)
As to the kind of experiment: Aβ(1-40) β-pleated sheet formation, Thioflavin T fluorescence. The data set is classed as biochemical. The following applies: Aβ(1-40) 3 μg, PBS pH 6.0, 4 hours, read-out: % Protection (β-pleated sheet formation). The source says:
Effect of Benzamides on Aβ(1-40) β-Pleated Sheets Formation: Detection of Amyloid Aggregation in Solution by Thioflavin T Fluorescence Spectra
Several assays have been developed to assess the activity of compounds as agents for the treatment of Alzheimer's disease.
Thioflavin T (ThT) rapidly associates with β pleated sheets particularly the aggregated fibrils of synthetic Aβ(1-40), giving rise to a new excitation maximum at 440 nm and enhanced emission at 490 nm. According to this principle, agents which could delay or reverse the formation of such association might be of therapeutic benefit.
Experiments were performed in 96 well plates and the fluorescence changes were evaluated using Fluorescence plate reader-CytoFluor II. Briefly, into each well was aliquoted 95 μl of ThT (3 μM) prepared in PBS (pH 6.0), 2 μl of NRT (10 μM) prepared in 0.05% of methylcellulose in PBS (pH 6.0), and 3 μl of Aβ(1-40)(3 μg) prepared with dH2 O. The fluorescence measurement began when Aβ(1-40) was added and continued for 4 hours at which the aggregation reached a plateau. The % protection of β-pleated sheet formation was calculated from the relative fluorescence unit difference between aggregation in the presence and in the absence of test compounds.

A short description of data set [3]: In vivo biotransformation of CPI1020 (metabolite in blood after oral administration). The following applies: rats and mice, CPI1020 administered orally. The text has this: Commonly owned U.S. Pat. No. 5,472,983, referred to above, discloses several benzamides useful in treating neurodegenerative diseases based on their protective action in the MPTP mouse model of Parkinson's disease. […] This compound is likely formed in the body by reduction of the ring nitro of CPI1020 to an amino moiety (CPI1160) followed by acetylation of the amino function.

Data set [4] deals with striatal dopamine. As to the kind of experiment: 6-Hydroxydopamine dopamine depletion model. The following applies: for Test side as percent of control side: right striatum injected with 6-hydroxydopamine. The data set is classed as in vivo, male Sprague Dawley rats. The method, then: Another assay for agents effective in treating dopamine-associated neurodegenerative disorders has been developed. In this assay, the striatum of test animals is injected with the neurotoxicant, 6-hydroxydopamine. 6-Hydroxydopamine has a dopamine-depleting action and is widely accepted as a model for these conditions. Test compounds are administered to determine if they are capable of preventing or reducing the loss of dopamine in the test animals. Again, to the extent that dopamine levels are retained, a compound can be considered an effective agent.
Tests were conducted to assess the ability of CPI-1189 to protect against 6-hydroxydopamine-induced damage. This is a widely accepted model for Parkinson's disease in which 6-hydroxydopamine is believed to produce its toxic effects by inducing oxidative stress. 6-hydroxydopamine has been used extensively since the 1960's as a neurotoxicant. Because 6-hydroxydopamine primarily affects catecholaminergic neurons, it has been mainly used for the experimental study of Parkinson's disease. The compound has had widespread use as a means of administering unilateral lesions in the nigrastriatal system. Animals treated with this toxin show biochemical and behavioral alterations that can be measured and probed pharmacologically to assess both the severity of the lesion and to determine the effect of potential therapeutic interventions.
The protective dose response of CPI-1189 to 6-hydroxydopamine-induced damage to the nigrastriatal system was determined. Damage to the nigrastriatal system was measured in terms of striatal dopamine levels.
Acclimated male Sprague Dawley rats, 55 to 120 days of age were used.
6-hydroxy-dopamine (Research Biochemicals Incorporated) was prepared in a 0.9% NaCl solution containing 0.1 mg/ml ascorbic acid on the morning of the experiment. […]
Immediately following sacrifice, dissected striatal tissue was collected and analyzed by HPLC/EC […] with the results shown in Table 5.

Data set [5] concerns striatal dopamine. As to the kind of experiment: Long term protective effect test in the MPTP model (sacrifice 3 or 14 days after dosing). The data set is classed as in vivo, C57BL/6J mice. Here is the method: C57BL/6J mice were pretreated with either vehicle (1% methyl cellulose) or a drug (p.o.) 30 min before MPTP. MPTP was dissolved in isotonic saline (0.9%) and given subcutaneously as a single dose of 15 mg free base/kg body weight to produce a reduction in striatal dopamine to about 0.5 nanomoles/mg protein. Groups of mice (n=8-10 per group) received either vehicle plus saline, vehicle plus MPTP, or drug plus MPTP. Seventy two hours after receiving MPTP, mice were sacrificed using cervical dislocation and the striata were excised. The tissue was homogenized in 0.4 N perchloric acid, centrifuged, and the supernatant analyzed by high performance liquid chromatography/electro-chemical detection (HPLC/ED) for dopamine levels. Supernatants were stored in a -90° C. freezer between the time of collection and analysis.
Additional studies were carried out to determine the long-term effect on dopamine depletion of the compounds of the invention. Using the general test method described above, C57BL/6J mice were pretreated with either vehicle or test compound and MPTP and then sacrificed either 3 or 14 days after dosing.

T1 sequence (P05067 672-711 limits assumed): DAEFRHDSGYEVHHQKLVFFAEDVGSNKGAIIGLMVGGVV

`CC(C)(C)NC(=O)c1ccc([N+](=O)[O-])cc1` [CPI1020, N-tert-butyl-4-nitrobenzamide, reference compound]: in data set [1], the “protection from MPTP neurotoxicity, % of control” value is recorded as 56 % of control; the “protection from the neurotoxic action of MPTP (in words)” value was “not as effective”; the “Dopamine, nM/mg ± S.E.M., test compound” value is 0.58 ± .14 nM/mg; the “Protection, %” value was 56%.
Turning to `CC(C)NC(=O)c1ccc([N+](=O)[O-])cc1` [CPI1026, N-iso-propyl-4-nitrobenzamide], the inhibition at 10 µM in data set [2] came to 14.4 ± 14.4%.
Turning to `CCC(C)(C)NC(=O)c1ccc([N+](=O)[O-])cc1` [CPI1033, N-tert-amyl-4-nitrobenzamide], in data set [2], the inhibition at 10 µM worked out at 31.7 ± 3.5%.
On to `CC(C)(C)NC(=O)c1ccc(N)cc1` [CPI1160, N-tert-butyl4-aminobenzamide], for which, in data set [1], the “% non-MPTP control (striatal dopamine)” value turned out to be 93.9%; the “Dopamine/mg protein ± S.E.M.” value was 1.25 ± .05 /MG PROTEIN; the “prevention of dopamine depletion following MPTP challenge (in words)” value (“prevention” for short) is recorded as “effective in preventing dopamine depletion”; the “Degree of protection, % (MPTP dopamine depletion test)” value (shortened to “Degree of protection, %”) turned out to be 94%.
As for `CC(=O)Nc1ccc(C(=O)NC(C)(C)C)cc1` [CPI1189, N-tert-butyl-4-acetamidobenzamide], the inhibition at 10 µM in data set [2] turned out to be 48.3 ± 10.1%. For the same compound, in data set [3], the “in vivo biotransformation product of CPI1020 found in blood (in words)” value was “found in the blood of rats and mice”. Further, the “Test side as percent of control side” value in data set [4] (50 mg/kg oral) was found to be 72.82 ± 8.32%. The “Test side as percent of control side” value in data set [4] (100 mg/kg oral) was found to be 77.61 ± 13.5%. For the same compound, the “protection against 6-hydroxydopamine induced dopamine depletion (in words)” value in data set [4] (rat, in vivo) was “able to protect against 6-hydroxydopamine induced dopamine depletion”. For the same compound, in data set [1], the “% non-MPTP control (striatal dopamine)” value stood at 89.7%; the “Dopamine/mg protein ± S.E.M.” value is 1.37 ± .14 /MG PROTEIN; the “protection from MPTP neurotoxicity, % of control” value is recorded as 105 % of control; the “protection from the neurotoxic action of MPTP (in words)” value was “complete protection”. Also, in data set [1], the “Dopamine, nM/mg ± S.E.M., test compound” value was 1.57 ± .11 nM/mg; the “Protection, %” value was found to be 105%; the “prevention” value is recorded as “effective in preventing dopamine depletion”. Besides, in data set [1] (s.c. MPTP), the “potency relative to CPI1020 in protecting mice from dopamine reduction in the striatum” value is given as “approximately 10 times”. The “Striatal dopamine, percent of methyl cellulose/saline control” value in data set [5] (3 Day Sac) is reported as 100%. In addition, the “Striatal dopamine, percent of methyl cellulose/saline control” value in data set [5] (14 Day Sac) was found to be 96.7%. Also, the “protection against MPTP induced dopamine depletion (in words)” value in data set [5] (sacrificed three days and fourteen days post MPTP) is recorded as “able to protect against MPTP induced dopamine depletion”.
Turning to `CC(=O)Nc1ccc(C(=O)NC(C)C)cc1` [CPI1232, N-iso-propyl-4-acetamidobenzamide], in data set [1], the “Degree of protection, %” value stood at 70%.
Consider `CCC(C)(C)NC(=O)c1ccc(NC(C)=O)cc1` [CPI1233, N-tert-amyl-4-acetamidobenzamide], for which the “Degree of protection, %” value in data set [1] came out at 40%.
For `CC(=O)Nc1cccc(C(=O)NC(C)(C)C)c1` [CPI1234, N-tert-butyl-3-acetamidobenzamide], in data set [1], the “% non-MPTP control (striatal dopamine)” value is 76.7%; the “Dopamine/mg protein ± S.E.M.” value is 1.02 ± .05 /MG PROTEIN; the “prevention” value was “effective in preventing dopamine depletion”; the “Degree of protection, %” value came out at 77%.
As to “N-methylcyclopropyl-4-acetamidobenzamide [CPI1241]”, in data set [1], the “Degree of protection, %” value came out at 40%.

For the origin of these results see patent US5955506A, “Benzamides for neurodegenerative disorder treatment” (priority 1998, dated 1999).
